# Literature values as cited in US20200113824A1, “DISPENSING CAP CONTAINING A SOLUBILISATE OF A […] ACTIVE AGENT OR DIETARY SUPPLEMENT” (priority 2017, published 2020).
# What was measured:
# murine gut microbiota = details: promoting obesity and inflammatory bowel diseases
# human CYP3A4 = human CYP3A4 (Homo sapiens, UniProt P08684)
# P-glycoprotein = P-glycoprotein (Homo sapiens, UniProt P08183)
# Chain of P-glycoprotein (P08183 whole entry): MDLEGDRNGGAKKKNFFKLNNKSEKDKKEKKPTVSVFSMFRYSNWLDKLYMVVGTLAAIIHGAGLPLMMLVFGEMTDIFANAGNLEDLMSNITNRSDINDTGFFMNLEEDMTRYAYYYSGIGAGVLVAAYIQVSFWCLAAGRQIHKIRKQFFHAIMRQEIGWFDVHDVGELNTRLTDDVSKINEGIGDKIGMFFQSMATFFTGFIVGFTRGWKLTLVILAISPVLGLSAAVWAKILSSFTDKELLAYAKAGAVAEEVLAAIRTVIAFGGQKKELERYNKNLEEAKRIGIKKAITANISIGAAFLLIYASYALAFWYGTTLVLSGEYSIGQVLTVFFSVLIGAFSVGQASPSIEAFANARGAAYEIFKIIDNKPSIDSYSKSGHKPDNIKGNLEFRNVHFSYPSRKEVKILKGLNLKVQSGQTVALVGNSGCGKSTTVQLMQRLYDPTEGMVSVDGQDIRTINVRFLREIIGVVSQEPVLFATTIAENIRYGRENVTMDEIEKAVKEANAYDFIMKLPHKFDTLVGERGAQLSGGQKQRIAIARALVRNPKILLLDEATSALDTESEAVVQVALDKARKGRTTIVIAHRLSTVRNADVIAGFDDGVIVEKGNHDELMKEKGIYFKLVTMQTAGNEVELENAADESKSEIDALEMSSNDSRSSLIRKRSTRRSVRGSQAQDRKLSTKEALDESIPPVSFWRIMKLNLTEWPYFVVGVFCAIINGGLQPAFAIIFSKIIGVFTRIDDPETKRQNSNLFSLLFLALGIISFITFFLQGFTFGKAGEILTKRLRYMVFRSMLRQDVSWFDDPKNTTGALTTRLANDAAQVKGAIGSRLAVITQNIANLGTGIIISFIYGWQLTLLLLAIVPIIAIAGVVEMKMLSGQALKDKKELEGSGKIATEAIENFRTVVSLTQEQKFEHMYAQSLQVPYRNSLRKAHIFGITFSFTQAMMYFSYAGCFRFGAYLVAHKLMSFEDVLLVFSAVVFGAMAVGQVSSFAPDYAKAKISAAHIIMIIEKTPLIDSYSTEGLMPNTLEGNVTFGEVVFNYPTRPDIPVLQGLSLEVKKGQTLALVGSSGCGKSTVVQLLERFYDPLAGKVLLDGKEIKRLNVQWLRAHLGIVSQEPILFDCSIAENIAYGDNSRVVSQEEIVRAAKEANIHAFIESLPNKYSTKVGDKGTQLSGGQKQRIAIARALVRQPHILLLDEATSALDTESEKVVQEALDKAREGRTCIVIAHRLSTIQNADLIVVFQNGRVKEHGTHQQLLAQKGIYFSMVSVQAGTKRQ
# Chain of human CYP3A4 (P08684 whole entry): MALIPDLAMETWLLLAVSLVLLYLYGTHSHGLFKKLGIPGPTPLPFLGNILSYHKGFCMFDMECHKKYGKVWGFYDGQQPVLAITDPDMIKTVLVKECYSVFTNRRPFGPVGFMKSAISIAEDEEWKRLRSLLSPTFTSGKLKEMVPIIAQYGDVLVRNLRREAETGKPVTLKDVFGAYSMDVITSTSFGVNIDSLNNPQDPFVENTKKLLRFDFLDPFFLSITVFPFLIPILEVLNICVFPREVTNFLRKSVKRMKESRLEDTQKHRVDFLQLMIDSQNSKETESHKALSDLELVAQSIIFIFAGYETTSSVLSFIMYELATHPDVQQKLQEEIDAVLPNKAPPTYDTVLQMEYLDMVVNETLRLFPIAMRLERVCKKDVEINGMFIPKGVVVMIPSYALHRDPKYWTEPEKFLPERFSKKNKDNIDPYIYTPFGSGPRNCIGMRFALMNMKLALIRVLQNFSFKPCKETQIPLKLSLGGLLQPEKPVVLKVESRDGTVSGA
Compound,effects on murine gut microbiota (murine gut microbiota),inhibition of human CYP3A4 (human CYP3A4),inhibition of P-glycoprotein (P-glycoprotein)
Polysorbate-80,detrimental effects,–,–
"O=C(C=CC=Cc1ccc2c(c1)OCO2)N1CCCCC1 [Piperine, 1-[5-(1,3-benzodioxol-5-yl)-1-oxo-2,4-pentadienyl]piperidine]",–,inhibit,inhibit
